Laboratory results as given in US10874108B2, “Anti-microbial compositions” (5D HEALTH PROTECTION GROUP LTD, priority 2016, dated 2020).

Experiments:
Type in all cases: cell-based
[1] = tested on: S. aureus MRSA BAA-43 biofilm; assay: MBEC model (ASTM E2799), liquid formulas; settings: treated 24 hours
Experimental: (§1) The MBEC model (ASTM E2799) was used to assess the anti-biofilm efficacy of the liquid formulas. Biofilms were grown on polystyrene pegs in the MBEC model for either 24 or 48 hours before treatment. Using the liquid form of the EDTA complexes 24- and 48-hour biofilms were tested (Table 20).
(§2) 24- and 48-hour biofilms were formed using MBEC plate method and treated for 24 hours. Technical replicates n=3. Log reduction (LR) values show±standard error (SE) of LR value.

[2] = tested on: P. aeruginosa NCTC 10662 biofilm; assay: MBEC model (ASTM E2799), liquid formulas; settings: treated 24 hours
Experimental: as §1, §2

[3] = tested on: S. epidermidis ATCC 35984 biofilm; assay: MBEC model (ASTM E2799), liquid formulas; settings: treated 24 hours
Experimental: as §1, §2

[4] = tested on: S. aureus ATCC 29213 biofilm; assay: MBEC model (ASTM E2799), liquid formulas; settings: treated 24 hours
Experimental: as §1, §2

[5] = tested on: E. faecalis ATCC 29212 biofilm; assay: MBEC model (ASTM E2799), liquid formulas; settings: treated 24 hours
Experimental: as §1, §2

[6] = tested on: P. aeruginosa biofilms; assay: CDC bioreactor biofilm LR/kill, EDTA compounds at 100 ppm silver; settings: 100 ppm of silver, exposed 24 hours
Experimental: (§3) Microbial cultures were exposed to compounds for 24 hours. Compounds were diluted according to 100 ppm of silver. Biofilms were formed using the CDC bioreactor. Samples were performed in triplicate.

[7] = tested on: S. aureus biofilms; assay: as above; settings: 100 ppm of silver, exposed 24 hours
Experimental: as §3

[8] = tested on: P. aeruginosa biofilms; assay: MBEC plate 48-hour biofilm, liquid EDTA-Ag2-Zn compound
Description: Biofilms were formed using the MBEC plate method. Log reduction (LR) values are expressed with standard error. N.D (not determined) is stated when no colonies were detected upon enumeration.

O=C([O-])CN(CCN(CC(=O)[O-])CC(=O)[O-])CC(=O)[O-].[Ag+].[Ag+].[Zn+2] [Compound 4, Ag2ZnEDTA] gave a Kill % ([1]; 50 ppm, 24-Hour Biofilm) of 100%, an LR ([1]; 50 ppm, 24-Hour Biofilm) of 5.40 and a Kill % ([1]; 50 ppm, 48-Hour Biofilm) of 100%. It also gave an LR ([1]; 50 ppm, 48-Hour Biofilm) of 6.43, a Kill % ([1]; 100 ppm, 24-Hour Biofilm) of 100% and an LR ([1]; 100 ppm, 24-Hour Biofilm) of 5.40. It also gave a Kill % ([1]; 100 ppm, 48-Hour Biofilm) of 100%, an LR ([1]; 100 ppm, 48-Hour Biofilm) of 6.43 and a Kill % ([2]; 50 ppm, 24-Hour Biofilm) of 100%. It also gave an LR ([2]; 50 ppm, 24-Hour Biofilm) of 7.44, a Kill % ([2]; 50 ppm, 48-Hour Biofilm) of 100% and an LR ([2]; 50 ppm, 48-Hour Biofilm) of 8.44. The Kill % ([2]; 100 ppm, 24-Hour Biofilm) was 100%, the LR ([2]; 100 ppm, 24-Hour Biofilm) was 7.44 and the Kill % ([2]; 100 ppm, 48-Hour Biofilm) was 100%. For the same compound, the LR ([2]; 100 ppm, 48-Hour Biofilm) was 8.44, the Kill % ([3]; 50 ppm, 24-Hour Biofilm) was 100% and the LR ([3]; 50 ppm, 24-Hour Biofilm) was 6.09. The Kill % ([3]; 50 ppm, 48-Hour Biofilm) was 100%, the LR ([3]; 50 ppm, 48-Hour Biofilm) was 6.41 and the Kill % ([3]; 100 ppm, 24-Hour Biofilm) was 100%. It also gave an LR ([3]; 100 ppm, 24-Hour Biofilm) of 6.09, a Kill % ([3]; 100 ppm, 48-Hour Biofilm) of 100% and an LR ([3]; 100 ppm, 48-Hour Biofilm) of 6.41. For the same compound, the Kill % ([4]; 50 ppm, 24-Hour Biofilm) was 100%, the LR ([4]; 50 ppm, 24-Hour Biofilm) was 6.44 and the Kill % ([4]; 50 ppm, 48-Hour Biofilm) was 100%. It also gave an LR ([4]; 50 ppm, 48-Hour Biofilm) of 6.50, a Kill % ([4]; 100 ppm, 24-Hour Biofilm) of 100% and an LR ([4]; 100 ppm, 24-Hour Biofilm) of 6.44. The Kill % ([4]; 100 ppm, 48-Hour Biofilm) was 100%, the LR ([4]; 100 ppm, 48-Hour Biofilm) was 6.50 and the Kill % ([5]; 50 ppm, 24-Hour Biofilm) was 100%. The LR ([5]; 50 ppm, 24-Hour Biofilm) was 6.35, the Kill % ([5]; 50 ppm, 48-Hour Biofilm) was 100% and the LR ([5]; 50 ppm, 48-Hour Biofilm) was 6.40. It also gave a Kill % ([5]; 100 ppm, 24-Hour Biofilm) of 100%, an LR ([5]; 100 ppm, 24-Hour Biofilm) of 6.35 and a Kill % ([5]; 100 ppm, 48-Hour Biofilm) of 100%. The LR ([5]; 100 ppm, 48-Hour Biofilm) was 6.40, the “Kill %” value [6] was 99.95% and the LR [6] was 3.34 ± 0.11. The “Kill %” value [7] was 99.98%, the LR [7] was 3.73 ± 0.18 and the “% Kill” value ([8]; 62.5 ppm, treatment 1 hours) was 100%. For the same compound, the “% Kill” value ([8]; 62.5 ppm, treatment 24 hours) was 100%, the “% Kill” value ([8]; 125 ppm, treatment 1 hours) was 100% and the “% Kill” value ([8]; 125 ppm, treatment 24 hours) was 100%. For the same compound, the “% Kill” value ([8]; 250 ppm, treatment 1 hours) was 100%, the “% Kill” value ([8]; 250 ppm, treatment 24 hours) was 100% and the “% Kill” value ([8]; 500 ppm, treatment 1 hours) was 100%.
